Experimental data as given in the supplement of paper PMC10307832.

Assays:
Test in all cases: relative viability (nuclei count vs DMSO), 5 days (fraction); higher = more cells survive
[1] = compound: CN1CCC(CC1)OC2=CC(=C(C=C2)NC3=NC=C4C(=N3)N(C(=O)N4C)C5CCCC5)OC [AZ3146] + CC(=O)c1c(C)c2cnc(Nc3ccc(N4CCNCC4)cn3)nc2n(C2CCCC2)c1=O [Palbociclib] (partner 0.5 µM)
How it was run: (§1)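 Relative viability equals treated-well nuclei counts divided by vehicle-well nuclei counts. Counts came from 4× images of lung cancer cell lines grown in 1536-well plates for 5 days after pin-tool dosing on the day after seeding. Dosing used one drug alone or a fixed anchor-drug dose plus five library-drug doses (not always all listed) in √10 steps, and values are medians of duplicate plates.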

[2] = compound: CCOC(=O)CCNc1cc(N2CCc3ccccc3CC2)nc(-c2ccccn2)n1 [GSK-J4] + CS(=O)(=O)CCNCc1ccc(-c2ccc3ncnc(Nc4ccc(OCc5cccc(F)c5)c(Cl)c4)c3c2)o1 [Lapatinib] (partner 2 µM)
How it was run: as §1

[3] = compound: CN1CCC(CC1)OC2=CC(=C(C=C2)NC3=NC=C4C(=N3)N(C(=O)N4C)C5CCCC5)OC [AZ3146] + N=C(N)NC(=N)NCCc1ccccc1 [Phenformin] (partner 250 µM)
How it was run: as §1

[4] = compound: CN1CCC(CC1)OC2=CC(=C(C=C2)NC3=NC=C4C(=N3)N(C(=O)N4C)C5CCCC5)OC [AZ3146] + CCNC(=O)c1noc(-c2cc(C(C)C)c(O)cc2O)c1-c1ccc(CN2CCOCC2)cc1 [Luminespib] (partner 0.01 µM)
How it was run: as §1

Cell Line	relative viability ([1]; first compound 0.08 µM)	relative viability ([1]; first compound 0.253 µM)	relative viability ([1]; first compound 2.53 µM)	relative viability ([1]; first compound 8 µM)	relative viability ([2]; first compound 0.5 µM)	relative viability ([2]; first compound 1.581 µM)	relative viability ([2]; first compound 5 µM)	relative viability ([2]; first compound 15.81 µM)	relative viability ([2]; first compound 50 µM)	relative viability ([3]; first compound 0.08 µM)	relative viability ([3]; first compound 0.8 µM)	relative viability ([3]; first compound 2.53 µM)	relative viability ([3]; first compound 8 µM)	relative viability ([4]; first compound 0.08 µM)	relative viability ([4]; first compound 0.253 µM)	relative viability ([4]; first compound 0.8 µM)	relative viability ([4]; first compound 2.53 µM)	relative viability ([4]; first compound 8 µM)	relative viability ([1]; first compound 0.8 µM)	relative viability ([3]; first compound 0.253 µM)
NCI-H1792	0.507	0.664	0.679	0.669	0.932	0.705	0.835	0.782	0.692	0.191	0.318	0.267	0.121	0.345	0.478	0.571	0.435	0.431	–	–
LC-2-ad	0.419	0.546	0.455	0.453	1.04	0.743	0.809	0.904	0.664	0.54	0.614	0.628	0.609	0.877	1.16	1.08	1.09	1.07	0.475	0.557
LXF-289	0.574	0.603	0.595	0.579	0.899	0.821	0.907	0.934	0.866	0.535	0.524	0.528	0.43	0.643	0.691	0.705	0.772	0.787	0.564	0.49
NCI-H2347	0.441	0.435	0.463	0.415	0.841	0.573	0.753	0.963	0.664	0.296	0.461	0.598	0.42	0.375	0.298	0.551	0.53	0.644	0.457	0.357
RERF-LC-KJ	1.05	1.17	1.21	0.833	0.843	0.802	0.749	0.788	0.734	0.395	0.433	0.432	0.384	1.15	1.2	1.22	1.29	0.668	1.01	0.44
NCI-H1650	0.301	0.343	0.352	0.283	0.751	0.174	0.731	0.634	0.327	0.415	0.449	0.386	0.26	0.214	0.201	0.185	0.189	0.186	0.366	0.355
NCI-H1734	0.308	0.376	0.3	0.317	0.977	0.802	0.74	0.893	0.725	0.393	0.406	0.426	0.376	0.181	0.198	0.689	0.198	0.2	0.387	0.373
NCI-H1915	0.431	0.571	0.573	0.491	0.963	0.802	0.83	0.941	0.961	0.285	0.381	0.365	0.343	0.717	0.888	0.913	0.875	0.919	0.564	0.375
NCI-H838	0.219	0.202	0.239	0.161	1.25	0.748	–	0.938	0.858	0.581	0.556	0.517	0.229	0.31	0.284	0.281	0.273	0.264	0.205	0.554
HCC-15	0.757	0.668	0.738	0.68	0.827	0.436	0.724	0.754	0.644	0.51	0.429	0.427	0.391	0.262	0.393	0.531	0.785	0.552	0.727	0.463
NCI-H650	0.303	0.343	0.363	0.27	0.841	0.579	0.614	0.783	0.614	0.386	0.445	0.526	0.461	0.734	0.706	0.764	0.904	0.854	0.234	0.44
NCI-H1651	0.486	0.532	0.526	0.497	0.84	0.779	0.814	0.863	0.839	0.31	0.345	0.34	0.313	0.966	0.881	0.984	0.761	0.779	0.53	0.316
NCI-H2405	0.516	0.546	0.505	0.508	1.15	1.03	–	1.09	1.17	0.4	0.304	0.373	0.366	0.923	0.704	0.967	0.756	0.914	0.504	0.309
LU99A	–	0.464	0.377	0.455	0.992	0.79	0.842	0.921	0.607	0.687	0.676	0.8	0.842	0.247	0.236	0.327	0.262	0.477	0.428	0.841
H3255	0.331	0.294	0.344	0.332	0.238	0.255	0.271	0.206	0.493	0.352	0.313	0.377	0.338	0.841	0.801	0.841	0.911	0.866	0.311	0.419
NCI-H1993	0.721	0.71	0.639	0.762	0.837	0.878	0.927	0.808	0.671	0.513	0.499	0.557	0.45	0.86	0.92	0.911	1.06	1.02	0.579	0.509
